Values after ≈ are worked out from the molar mass of the structure shown.
Columns and labels:
[1] = molecular target: Serine/threonine-protein kinase mTOR (Homo sapiens, UniProt P42345); assay: Inhibition of recombinant N-terminal GST-tagged mTOR-mediated 4E-BP1 phosphorylation after 60 mins by TR-FRET assay
[2] = molecular target: Phosphatidylinositol 4,5-bisphosphate 3-kinase catalytic subunit alpha isoform (Homo sapiens, UniProt P42336); assay: Inhibition of human PI3Kalpha using PI(4,5)P2 as substrate after 20 mins by alphascreen assay in presence of 20 uM ATP
[3] = system: Mus musculus; assay: Toxicity in nu/nu CD1 mouse xenografted with human U87MG cells assessed as weight loss at 3 mg/kg, po relative to control; assay type: organism-based, U-87MG ATCC; parameters: dose 3 mg/kg, route oral; details: in vivo
[4] = Antitumor activity against human U87MG tumor xenografted in po dosed nu/nu CD1 mouse assessed as tumor growth delay; assay type: functional, U-87MG ATCC; details: U-87 MG
[5] = system: Rattus norvegicus; assay: Liver blood flow in iv dosed Sprague-Dawley rat; assay type: ADME, organism-based; details: in vivo
[6] = Antitumor activity against human U87MG tumor xenografted in nu/nu CD1 mouse assessed as inhibition of tumor growth at 1 mg/kg, po qd; assay type: functional, U-87MG ATCC; details: U-87 MG, read-out: GI
[7] = molecular target: Phosphatidylinositol 4,5-bisphosphate 3-kinase catalytic subunit beta isoform (Homo sapiens, UniProt P42338); assay: Inhibition of human N-terminal His-tagged PI3Kbeta expressed in insect Sf9 cells using PI(4,5)P2 as substrate after 20 mins by alphascreen assay in presence of 20 uM ATP
[8] = AUC (0 to 24 hrs) in plasma of nu/nu CD1 mouse xenografted with human U87MG cells at ED50; assay type: ADME, organism-based, U-87MG ATCC; parameters: time < 24 hr
[9] = Volume of distribution in iv dosed Sprague-Dawley rat; assay type: ADME, organism-based; details: in vivo
[10] = system: Mus musculus; assay: In vivo inhibition of PI3Kalpha-mediated Akt phosphorylation in nu/nu CD1 mouse xenografted with U87MG tumor; assay type: functional, organism-based; details: CD1, U-87 MG
[11] = Ratio of drug level in tumor to plasma in nu/nu CD1 mouse xenografted with U87MG tumor at 1 mg/kg, po administered as single dose measured upto 8 hrs; assay type: ADME, organism-based; parameters: dose 1 mg/kg, route oral; details: tumor and plasma
[12] = system: Plasma; assay: Plasma EC50 for pAkt inhibition in nu/nu CD1 mouse xenografted with U87 MG tumor
[13] = AUC in Sprague-Dawley rat at 2 mg/kg, po; assay type: ADME, organism-based; parameters: dose 2 mg/kg, route oral; details: plasma
[14] = molecular target: Phosphatidylinositol 4,5-bisphosphate 3-kinase catalytic subunit gamma isoform (Homo sapiens, UniProt P48736); assay: Inhibition of human N-terminal His-tagged PI3Kgamma expressed in insect Sf9 cells using PI(4,5)P2 as substrate after 20 mins by alphascreen assay in presence of 8 uM ATP
[15] = Clearance in iv dosed Sprague-Dawley rat; assay type: ADME, organism-based; details: in vivo
[16] = Oral bioavailability in Sprague-Dawley rat at 2 mg/kg; assay type: ADME, organism-based; details: in vivo
[17] = Elimination half life in iv dosed Sprague-Dawley rat; assay type: ADME, organism-based; details: in vivo, read-out: beta t1/2 (converted)
[18] = molecular target: T1, Phosphatidylinositol 4,5-bisphosphate 3-kinase catalytic subunit delta isoform (Homo sapiens, UniProt O00329); assay: Inhibition of human N-terminal His-tagged PI3Kdelta expressed in insect Sf9 cells using PI(4,5)P2 as substrate after 20 mins by alphascreen assay in presence of 8 uM ATP
T1 sequence (O00329 whole entry): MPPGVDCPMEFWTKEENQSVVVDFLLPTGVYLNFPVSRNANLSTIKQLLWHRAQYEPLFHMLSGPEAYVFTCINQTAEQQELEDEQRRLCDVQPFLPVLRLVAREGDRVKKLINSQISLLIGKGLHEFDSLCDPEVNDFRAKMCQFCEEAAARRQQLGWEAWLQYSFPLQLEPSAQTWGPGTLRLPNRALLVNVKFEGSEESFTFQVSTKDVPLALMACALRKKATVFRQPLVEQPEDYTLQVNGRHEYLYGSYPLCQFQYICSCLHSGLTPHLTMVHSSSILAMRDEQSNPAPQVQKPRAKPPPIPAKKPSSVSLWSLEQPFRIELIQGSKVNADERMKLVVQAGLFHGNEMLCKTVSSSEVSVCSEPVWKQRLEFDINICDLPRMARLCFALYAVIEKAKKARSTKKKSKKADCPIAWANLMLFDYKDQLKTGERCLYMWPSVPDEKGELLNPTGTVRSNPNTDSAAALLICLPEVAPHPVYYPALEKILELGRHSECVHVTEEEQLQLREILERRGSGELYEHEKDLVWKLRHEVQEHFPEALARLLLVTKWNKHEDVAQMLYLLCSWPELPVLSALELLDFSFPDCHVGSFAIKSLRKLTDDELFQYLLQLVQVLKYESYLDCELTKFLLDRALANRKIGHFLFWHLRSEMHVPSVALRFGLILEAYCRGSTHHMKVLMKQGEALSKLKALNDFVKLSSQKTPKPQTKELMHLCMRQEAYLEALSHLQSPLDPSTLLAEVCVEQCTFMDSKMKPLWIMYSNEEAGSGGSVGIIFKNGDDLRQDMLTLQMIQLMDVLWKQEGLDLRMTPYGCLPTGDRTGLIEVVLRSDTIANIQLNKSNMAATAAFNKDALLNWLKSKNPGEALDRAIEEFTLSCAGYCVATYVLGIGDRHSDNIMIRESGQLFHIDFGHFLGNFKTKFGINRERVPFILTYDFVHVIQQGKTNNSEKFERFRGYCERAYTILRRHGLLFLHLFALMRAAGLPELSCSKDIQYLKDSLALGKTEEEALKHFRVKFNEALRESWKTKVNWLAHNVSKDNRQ

[19] = Ratio of drug level in tumor to plasma in nu/nu CD1 mouse xenografted with U87MG tumor at 3 mg/kg, po administered as single dose measured upto 16 hrs; assay type: ADME, organism-based; parameters: dose 3 mg/kg, route oral; details: tumor and plasma
[20] = in vitro; details: Sprague-Dawley, rat, liver microsomes
Description: Clearance in Sprague-Dawley rat liver microsomes

[21] = Clearance in mouse liver microsomes; assay type: ADME, Microsome
[22] = Clearance in cynomolgus monkey liver microsomes; assay type: ADME, Macaca fascicularis, Microsome
[23] = in vitro; details: human, liver microsomes
Description: Clearance in human liver microsomes

[24] = organism: Rattus norvegicus; assay: Liver blood flow in Sprague-Dawley rat; assay type: ADME, organism-based
[25] = Clearance in Beagle dog liver microsomes; assay type: ADME, Canis lupus familiaris, Microsome
[26] = organism: Canis familiaris; assay: Liver blood flow in Beagle dog; assay type: ADME, organism-based, Canis lupus familiaris
[27] = organism: Mus musculus; assay: Liver blood flow in mouse; assay type: ADME, organism-based

Phosphatidylinositol 4,5-bisphosphate 3-kinase catalytic subunit alpha isoform, sequence (P42336 whole entry, canonical isoform): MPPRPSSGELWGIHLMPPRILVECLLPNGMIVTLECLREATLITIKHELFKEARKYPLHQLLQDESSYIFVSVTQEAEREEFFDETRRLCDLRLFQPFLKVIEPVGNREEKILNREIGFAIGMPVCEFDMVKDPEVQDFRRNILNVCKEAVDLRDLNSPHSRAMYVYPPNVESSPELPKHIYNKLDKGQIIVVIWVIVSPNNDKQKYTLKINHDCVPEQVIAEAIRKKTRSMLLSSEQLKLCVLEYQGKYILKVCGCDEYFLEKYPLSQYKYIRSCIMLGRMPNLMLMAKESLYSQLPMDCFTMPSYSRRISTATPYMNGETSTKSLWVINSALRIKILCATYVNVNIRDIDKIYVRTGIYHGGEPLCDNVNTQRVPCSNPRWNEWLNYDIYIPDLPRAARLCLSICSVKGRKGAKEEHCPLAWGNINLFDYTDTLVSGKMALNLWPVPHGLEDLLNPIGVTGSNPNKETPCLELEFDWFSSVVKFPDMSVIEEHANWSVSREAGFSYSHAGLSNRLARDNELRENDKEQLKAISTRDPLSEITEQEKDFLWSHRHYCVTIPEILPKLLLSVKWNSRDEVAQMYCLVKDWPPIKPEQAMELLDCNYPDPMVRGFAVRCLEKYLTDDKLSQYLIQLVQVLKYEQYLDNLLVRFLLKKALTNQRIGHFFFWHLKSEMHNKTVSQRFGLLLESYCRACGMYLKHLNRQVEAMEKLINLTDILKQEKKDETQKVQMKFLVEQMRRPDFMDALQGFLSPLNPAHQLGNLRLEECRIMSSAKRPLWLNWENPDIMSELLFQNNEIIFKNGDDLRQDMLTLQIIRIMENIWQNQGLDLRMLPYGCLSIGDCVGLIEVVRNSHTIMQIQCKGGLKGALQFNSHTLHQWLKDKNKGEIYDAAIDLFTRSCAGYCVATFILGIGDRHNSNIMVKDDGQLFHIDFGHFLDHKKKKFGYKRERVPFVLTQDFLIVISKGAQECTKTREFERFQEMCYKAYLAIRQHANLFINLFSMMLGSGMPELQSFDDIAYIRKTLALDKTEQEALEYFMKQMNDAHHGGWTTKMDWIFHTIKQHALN
Phosphatidylinositol 4,5-bisphosphate 3-kinase catalytic subunit gamma isoform, sequence (P48736 whole entry, canonical isoform): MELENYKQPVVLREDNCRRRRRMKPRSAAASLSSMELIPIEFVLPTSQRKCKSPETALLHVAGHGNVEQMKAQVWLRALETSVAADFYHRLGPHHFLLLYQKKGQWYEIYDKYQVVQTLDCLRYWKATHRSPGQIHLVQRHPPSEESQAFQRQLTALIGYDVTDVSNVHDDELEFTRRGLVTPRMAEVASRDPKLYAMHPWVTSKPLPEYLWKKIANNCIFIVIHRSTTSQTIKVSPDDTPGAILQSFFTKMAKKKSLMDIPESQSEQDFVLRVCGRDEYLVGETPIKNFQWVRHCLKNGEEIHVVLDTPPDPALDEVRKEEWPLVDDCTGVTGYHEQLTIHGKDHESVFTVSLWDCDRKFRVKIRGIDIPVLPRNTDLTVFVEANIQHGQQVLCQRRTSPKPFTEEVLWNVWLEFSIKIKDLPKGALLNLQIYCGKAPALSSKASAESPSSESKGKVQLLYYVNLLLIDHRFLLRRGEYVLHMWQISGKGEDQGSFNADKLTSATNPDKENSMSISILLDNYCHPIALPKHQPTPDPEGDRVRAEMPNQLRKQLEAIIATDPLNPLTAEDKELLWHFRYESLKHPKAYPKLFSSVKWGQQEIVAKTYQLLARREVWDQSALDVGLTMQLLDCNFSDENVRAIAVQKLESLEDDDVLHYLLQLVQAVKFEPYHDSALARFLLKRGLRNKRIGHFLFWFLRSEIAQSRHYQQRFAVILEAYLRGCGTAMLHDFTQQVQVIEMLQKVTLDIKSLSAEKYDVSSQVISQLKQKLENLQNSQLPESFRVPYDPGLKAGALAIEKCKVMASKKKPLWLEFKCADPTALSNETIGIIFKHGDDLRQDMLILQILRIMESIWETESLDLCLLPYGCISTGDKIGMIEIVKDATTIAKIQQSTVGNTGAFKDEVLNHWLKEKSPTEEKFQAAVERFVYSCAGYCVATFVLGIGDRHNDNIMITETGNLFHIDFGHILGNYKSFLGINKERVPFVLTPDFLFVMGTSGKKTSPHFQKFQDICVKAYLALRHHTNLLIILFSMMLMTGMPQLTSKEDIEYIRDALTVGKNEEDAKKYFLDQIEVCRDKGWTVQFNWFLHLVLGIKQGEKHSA
Phosphatidylinositol 4,5-bisphosphate 3-kinase catalytic subunit beta isoform, sequence (P42338 whole entry, canonical isoform): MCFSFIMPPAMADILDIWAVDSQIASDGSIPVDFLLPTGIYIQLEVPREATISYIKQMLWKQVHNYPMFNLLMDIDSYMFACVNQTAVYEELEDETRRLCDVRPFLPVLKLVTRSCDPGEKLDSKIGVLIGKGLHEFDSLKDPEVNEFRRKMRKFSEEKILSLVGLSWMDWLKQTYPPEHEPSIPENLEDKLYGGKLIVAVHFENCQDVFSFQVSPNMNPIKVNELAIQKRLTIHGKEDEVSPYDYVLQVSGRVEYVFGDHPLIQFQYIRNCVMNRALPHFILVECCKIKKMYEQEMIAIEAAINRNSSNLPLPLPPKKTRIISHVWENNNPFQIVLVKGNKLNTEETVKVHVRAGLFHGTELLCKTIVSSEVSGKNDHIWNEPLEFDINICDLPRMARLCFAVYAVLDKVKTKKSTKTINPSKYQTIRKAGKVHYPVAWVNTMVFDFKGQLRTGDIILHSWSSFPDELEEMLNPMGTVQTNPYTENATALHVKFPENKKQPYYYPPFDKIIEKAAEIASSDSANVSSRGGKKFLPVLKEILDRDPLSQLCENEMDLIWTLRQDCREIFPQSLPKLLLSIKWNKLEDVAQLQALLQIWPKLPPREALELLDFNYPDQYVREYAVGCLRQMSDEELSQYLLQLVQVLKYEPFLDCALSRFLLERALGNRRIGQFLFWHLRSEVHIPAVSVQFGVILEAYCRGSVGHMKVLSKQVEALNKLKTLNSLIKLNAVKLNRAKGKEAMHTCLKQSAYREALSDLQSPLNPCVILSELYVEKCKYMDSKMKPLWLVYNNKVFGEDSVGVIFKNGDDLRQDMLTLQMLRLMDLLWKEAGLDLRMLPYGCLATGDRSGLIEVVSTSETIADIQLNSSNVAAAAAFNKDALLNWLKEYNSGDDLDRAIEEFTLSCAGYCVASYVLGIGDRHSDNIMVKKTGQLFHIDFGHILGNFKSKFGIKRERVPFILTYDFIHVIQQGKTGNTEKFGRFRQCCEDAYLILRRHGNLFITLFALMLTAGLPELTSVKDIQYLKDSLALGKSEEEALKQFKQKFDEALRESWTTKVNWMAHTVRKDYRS

Compound | IC50 [1] [µM] | Ki [2] [µM] | also measured
O=S(=O)(Nc1cc(-c2ccc3nc[nH]c3c2)cnc1Cl)c1ccc(F)cc1 | 0.446 | 0.068 | –
O=S(=O)(Nc1cc(-c2ccc3nccn3c2)cnc1Cl)c1ccc(F)cc1 | 0.229 | 0.023 | –
O=S(=O)(Nc1cc(-c2ccc3nncn3c2)cnc1Cl)c1ccc(F)cc1 | > 25 | 0.051 | –
Nc1nc2ccc(-c3cnc(Cl)c(NS(=O)(=O)c4ccc(F)cc4)c3)cc2o1 | 0.07 | 0.0072 | –
CC(=O)Nc1nc2ccc(-c3cnc(Cl)c(NS(=O)(=O)c4ccc(F)cc4)c3)cc2s1 | – | – | microsomal CLint [20]: < 26 µL/min/mg; microsomal CLint [21]: < 26 µL/min/mg; microsomal CLint [22]: < 26 µL/min/mg; microsomal CLint [23]: < 26 µL/min/mg; QH [24]: 0.2%; microsomal CLint [25]: < 26 µL/min/mg; QH [26]: 0.2%; QH [27]: 0.2%
O=S(=O)(Nc1cc(-c2ccc3ncoc3c2)cnc1Cl)c1ccc(F)cc1 | 0.076 | 0.026 | –
O=S(=O)(Nc1cc(-c2ccc3sncc3c2)cnc1Cl)c1ccc(F)cc1 | 0.292 | 0.076 | –
CC(=O)Nc1nc2ccc(-c3cnc(Cl)c(NS(=O)(=O)c4ccc(F)cc4)c3)cc2o1 | 0.146 | 0.047 | –
Nc1nc2ccc(-c3cnc(Cl)c(NS(=O)(=O)c4ccc(F)cc4)c3)cc2[nH]1 | 0.43 | 0.119 | –

More lines, main results first:

IC50 [1] [µM] | Ki [2] [µM] | Compound | also measured
0.049 | 0.0061 | O=S(=O)(Nc1cc(-c2ccc3nccn3n2)cnc1Cl)c1ccc(F)cc1 | –
0.024 | – | Nc1nc2ccc(-c3cnc(Cl)c(NS(=O)(=O)c4ccc(F)cc4)c3)cc2s1 | –
0.0066 | 0.0012 | CC(=O)Nc1cn2cc(-c3cnc(Cl)c(NS(=O)(=O)c4ccc(F)cc4)c3)ccc2n1 | –
0.035 | 0.011 | Nc1cn2nc(-c3cnc(Cl)c(NS(=O)(=O)c4ccc(F)cc4)c3)ccc2n1 | –
0.02 | 0.0033 | CC(=O)Nc1nc2ccc(-c3cnc(Cl)c(NS(=O)(=O)c4ccc(F)cc4)c3)cc2[nH]1 | –
0.033 | – | O=S(=O)(Nc1cc(-c2ccc3ncsc3c2)cnc1Cl)c1ccc(F)cc1 | –
0.0004 | 0.0014 | CC(=O)Nc1cn2nc(-c3cnc(Cl)c(NS(=O)(=O)c4ccc(F)cc4)c3)ccc2n1 | Activity [3]: < 5%; ED50 [4]: 0.7 mg/kg; QH [5]: 1.2%; inhibition in vivo at 1 mg/kg [6]: 49%; Ki [7]: 0.0035 µM; AUC(0-t) at 24 h [8]: 9200 ng·h/mL; Vd [9]: 0.27 L/kg; EC50 [10]: 0.232 µg/mL (≈ 0.503 µM); Kp at 8 h [11]: 0.13; EC50 [12]: 0.5 µM; AUC [13]: 11500 ng·h/mL; Ki [14]: 0.0019 µM; clearance [15]: 0.667 mL/min/kg; bioavailability [16]: 46%; half-life [17]: 7 h; Ki [18]: 0.0008 µM; Kp at 16 h [19]: 0.27
0.02 | 0.0028 | Nc1cn2cc(-c3cnc(Cl)c(NS(=O)(=O)c4ccc(F)cc4)c3)ccc2n1 | –

From ChEMBL document CHEMBL1821651, “Structure-activity relationships of phosphoinositide 3-kinase (PI3K)/mammalian target of rapamycin (mTOR) dual inhibitors: investigations of various 6,5-heterocycles to improve metabolic stability” (J Med Chem, 2011)
